Experimental data as given in ChEMBL document CHEMBL2440076, “New triarylpyrazoles as broad-spectrum anticancer agents: design, synthesis, and biological evaluation” (Eur J Med Chem, 2013).

Key:
Type in all cases: functional
UACC-257 = assay: Growth inhibition of human UACC257 cells assessed as cell growth at 3X10'-9 M after 48 hrs by sulforhodamine B assay; conditions: UACC-257, 48 h, read-out: Activity
NCI-H522 [1] = assay: Growth inhibition of human NCI-H522 cells assessed as cell growth at 3X10'-9 M after 48 hrs by sulforhodamine B assay; conditions: NCI-H522, 48 h, read-out: Activity
MDA-MB-231 = assay: Growth inhibition of human MDA-MB-231 cells assessed as cell growth at 3X10'-5 M after 48 hrs by sulforhodamine B assay; conditions: MDA-MB-231, 48 h, read-out: Activity
SF-539 [2] = assay: Growth inhibition of human SF539 cells assessed as cell growth at 3X10'-8 M after 48 hrs by sulforhodamine B assay; conditions: SF-539, 48 h, read-out: Activity
NCI-H522 [3] = assay: Growth inhibition of human NCI-H522 cells assessed as cell growth at 3X10'-8 M after 48 hrs by sulforhodamine B assay; conditions: NCI-H522, 48 h, read-out: Activity
HL-60(TB) = assay: Growth inhibition of human HL-60(TB) cells assessed as cell growth at 3X10'-7 M after 48 hrs by sulforhodamine B assay; conditions: HL-60, 48 h, read-out: Activity
U-251 = assay: Growth inhibition of human U251 cells assessed as cell growth at 3X10'-6 M after 48 hrs by sulforhodamine B assay; conditions: U-251, 48 h, read-out: Activity
NCI-H460 = assay: Growth inhibition of human NCI-H460 cells assessed as cell growth at 3X10'-9 M after 48 hrs by sulforhodamine B assay; conditions: NCI-H460, 48 h, read-out: Activity
SNB-19 [4] = assay: Growth inhibition of human SNB19 cells assessed as cell growth at 3X10'-7 M after 48 hrs by sulforhodamine B assay; conditions: SNB-19, 48 h, read-out: Activity
KM12 [5] = assay: Growth inhibition of human KM12 cells assessed as cell growth at 3X10'-5 M after 48 hrs by sulforhodamine B assay; conditions: KM12, 48 h, read-out: Activity
UACC-62 [6] = assay: Growth inhibition of human UACC62 cells assessed as cell growth at 3X10'-5 M after 48 hrs by sulforhodamine B assay; conditions: UACC-62, 48 h, read-out: Activity
RPMI-8226 [7] = assay: Growth inhibition of human RPMI8226 cells assessed as cell growth at 3X10'-7 M after 48 hrs by sulforhodamine B assay; conditions: RPMI-8226, 48 h, read-out: Activity
RPMI-8226 [8] = assay: Growth inhibition of human RPMI8226 cells assessed as cell growth at 3X10'-8 M after 48 hrs by sulforhodamine B assay; conditions: RPMI-8226, 48 h, read-out: Activity
KM12 [9] = assay: Growth inhibition of human KM12 cells assessed as cell growth at 3X10'-8 M after 48 hrs by sulforhodamine B assay; conditions: KM12, 48 h, read-out: Activity
SR = assay: Growth inhibition of human SR cells assessed as cell growth at 3X10'-5 M after 48 hrs by sulforhodamine B assay; conditions: read-out: Activity
MDA-MB-468 = assay: Growth inhibition of human MDA-MB-468 cells assessed as cell growth at 3X10'-8 M after 48 hrs by sulforhodamine B assay; conditions: MDA-MB-468, 48 h, read-out: Activity
UACC-62 [10] = assay: Growth inhibition of human UACC62 cells assessed as cell growth at 3X10'-8 M after 48 hrs by sulforhodamine B assay; conditions: UACC-62, 48 h, read-out: Activity
IGROV-1 = assay: Growth inhibition of human IGROV1 cells assessed as cell growth at 3X10'-5 M after 48 hrs by sulforhodamine B assay; conditions: IGROV-1, 48 h, read-out: Activity
[11] = Growth inhibition of human NCI-ADR-RES cells assessed as cell growth at 3X10'-9 M after 48 hrs by sulforhodamine B assay; conditions: read-out: Activity
SNB-19 [12] = assay: Growth inhibition of human SNB19 cells assessed as cell growth at 3X10'-8 M after 48 hrs by sulforhodamine B assay; conditions: SNB-19, 48 h, read-out: Activity
A498 = assay: Growth inhibition of human A498 cells assessed as cell growth at 3X10'-5 M after 48 hrs by sulforhodamine B assay; conditions: A498, 48 h, read-out: Activity
MCF7 = assay: Growth inhibition of human MCF7 cells assessed as cell growth at 3X10'-7 M after 48 hrs by sulforhodamine B assay; conditions: MCF7, 48 h, read-out: Activity
SF-268 [13] = assay: Growth inhibition of human SF268 cells assessed as cell growth at 3X10'-5 M after 48 hrs by sulforhodamine B assay; conditions: SF-268, 48 h, read-out: Activity
CAKI-1 = assay: Growth inhibition of human CAKI-1 cells assessed as cell growth at 3X10'-6 M after 48 hrs by sulforhodamine B assay; conditions: CAKI-1, 48 h, read-out: Activity
SF-539 [14] = assay: Growth inhibition of human SF539 cells assessed as cell growth at 3X10'-9 M after 48 hrs by sulforhodamine B assay; conditions: SF-539, 48 h, read-out: Activity
OVCAR-8 = assay: Growth inhibition of human OVCAR8 cells assessed as cell growth at 3X10'-9 M after 48 hrs by sulforhodamine B assay; conditions: OVCAR-8, 48 h, read-out: Activity
T47D = assay: Growth inhibition of human T47D cells assessed as cell growth at 3X10'-9 M after 48 hrs by sulforhodamine B assay; conditions: read-out: Activity
SF-268 [15] = assay: Growth inhibition of human SF268 cells assessed as cell growth at 3X10'-6 M after 48 hrs by sulforhodamine B assay; conditions: SF-268, 48 h, read-out: Activity
K562 = assay: Growth inhibition of human K562 cells assessed as cell growth at 3X10'-5 M after 48 hrs by sulforhodamine B assay; conditions: K562, 48 h, read-out: Activity
NCI-H23 = assay: Growth inhibition of human NCI-H23 cells assessed as cell growth at 3X10'-9 M after 48 hrs by sulforhodamine B assay; conditions: NCI-H23, 48 h, read-out: Activity
[16] = Growth inhibition of human NCI-ADR-RES cells assessed as cell growth at 3X10'-7 M after 48 hrs by sulforhodamine B assay; conditions: read-out: Activity
HT-29 = assay: Growth inhibition of human HT-29 cells assessed as cell growth at 3X10'-7 M after 48 hrs by sulforhodamine B assay; conditions: HT-29, 48 h, read-out: Activity
SF-295 = assay: Growth inhibition of human SF295 cells assessed as cell growth at 3X10'-5 M after 48 hrs by sulforhodamine B assay; conditions: SF-295, 48 h, read-out: Activity
KM12 [17] = assay: Growth inhibition of human KM12 cells assessed as cell growth at 3X10'-9 M after 48 hrs by sulforhodamine B assay; conditions: KM12, 48 h, read-out: Activity
UO-31 = assay: Growth inhibition of human UO31 cells assessed as cell growth at 5X10'-6 M after 48 hrs by sulforhodamine B assay; conditions: UO-31, 48 h, read-out: Activity
OVCAR-4 = assay: Growth inhibition of human OVCAR4 cells assessed as cell growth at 5X10'-6 M after 48 hrs by sulforhodamine B assay; conditions: OVCAR-4, 48 h, read-out: Activity
RPMI-8226 [18] = assay: Growth inhibition of human RPMI8226 cells assessed as cell growth at 3X10'-6 M after 48 hrs by sulforhodamine B assay; conditions: RPMI-8226, 48 h, read-out: Activity

Structure (SMILES) | growth at 0.003 µM (UACC-257) [%] | growth at 0.003 µM (NCI-H522 [1]) [%] | growth at 30 µM (MDA-MB-231) [%] | growth at 0.03 µM (SF-539 [2]) [%] | growth at 0.03 µM (NCI-H522 [3]) [%] | growth at 3 µM (U-251) [%] | growth at 0.003 µM (NCI-H460) [%] | growth at 0.3 µM (SNB-19 [4]) [%] | growth at 30 µM (KM12 [5]) [%] | growth at 30 µM (UACC-62 [6]) [%] | growth at 0.3 µM (RPMI-8226 [7]) [%] | growth at 0.03 µM (RPMI-8226 [8]) [%] | growth at 0.03 µM (KM12 [9]) [%] | growth at 30 µM (SR) [%] | growth at 0.03 µM (MDA-MB-468) [%] | growth at 0.03 µM (UACC-62 [10]) [%] | growth at 30 µM (IGROV-1) [%] | growth at 0.003 µM [11] [%] | growth at 0.03 µM (SNB-19 [12]) [%] | growth at 30 µM (A498) [%] | also measured
COc1cc(-c2nn(-c3cccc(NC(=O)Nc4ccc(Cl)c(C(F)(F)F)c4)c3)cc2-c2ccncc2)ccc1Cl | 94 | 106 | -76 | 93 | 104 | 7 | 103 | 94 | -79 | -73 | 87 | 97 | 101 | -12 | 90 | 94 | -37 | 104 | 93 | -25 | growth at 0.3 µM (HL-60(TB)): 110%; growth at 0.3 µM (MCF7): 87%; growth at 30 µM (SF-268 [13]): -31%; growth at 3 µM (CAKI-1): 4%; growth at 0.003 µM (SF-539 [14]): 97%; growth at 0.003 µM (OVCAR-8): 105%; growth at 0.003 µM (T47D): 101%; growth at 3 µM (SF-268 [15]): 25%; growth at 30 µM (K562): 1%; growth at 0.003 µM (NCI-H23): 100%; growth at 0.3 µM [16]: 98%; growth at 0.3 µM (HT-29): 102%; growth at 30 µM (SF-295): -70%; growth at 0.003 µM (KM12 [17]): 103%
O=C(Nc1cccc(-n2cc(-c3ccncc3)c(-c3ccc(Cl)c(O)c3)n2)c1)c1ccc(N2CCOCC2)c(C(F)(F)F)c1 | – | – | – | – | – | – | – | – | – | – | – | – | – | – | – | – | – | – | – | – | growth at 5 µM (UO-31): 25%; growth at 5 µM (OVCAR-4): 80%
O=C(Nc1cccc(-n2cc(-c3ccncc3)c(-c3ccc(Cl)c(O)c3)n2)c1)Nc1ccc(Cl)c(Cl)c1 | 95 | 96 | -22 | 95 | 94 | 25 | 108 | 101 | -56 | -53 | 90 | 102 | 92 | -5 | 90 | 102 | 5 | 100 | 98 | -26 | growth at 3 µM (RPMI-8226 [18]): 10%; growth at 0.3 µM (MCF7): 94%; growth at 30 µM (SF-268 [13]): -21%; growth at 3 µM (CAKI-1): 17%; growth at 0.003 µM (SF-539 [14]): 92%; growth at 0.003 µM (OVCAR-8): 103%; growth at 0.003 µM (T47D): 97%; growth at 3 µM (SF-268 [15]): 23%; growth at 30 µM (K562): 4%; growth at 0.003 µM (NCI-H23): 90%; growth at 0.3 µM [16]: 102%; growth at 0.3 µM (HT-29): 110%; growth at 0.003 µM (KM12 [17]): 97%
O=C(Nc1cccc(-n2cc(-c3ccncc3)c(-c3ccc(Cl)c(O)c3)n2)c1)Nc1cc(C(F)(F)F)cc(C(F)(F)F)c1 | – | – | – | – | – | – | – | – | – | – | – | – | – | – | – | – | – | – | – | – | growth at 5 µM (UO-31): -45%
O=C(Nc1cccc(-n2cc(-c3ccncc3)c(-c3ccc(Cl)c(O)c3)n2)c1)Nc1cccc(C(F)(F)F)c1 | 96 | 95 | -5 | 100 | 90 | 29 | 99 | 96 | 1 | -67 | 90 | 98 | 95 | -9 | 89 | 96 | 3 | 99 | 98 | 15 | growth at 3 µM (RPMI-8226 [18]): 25%; growth at 0.3 µM (MCF7): 89%; growth at 30 µM (SF-268 [13]): -17%; growth at 3 µM (CAKI-1): 35%; growth at 0.003 µM (SF-539 [14]): 100%; growth at 0.003 µM (OVCAR-8): 99%; growth at 0.003 µM (T47D): 92%; growth at 3 µM (SF-268 [15]): 37%; growth at 30 µM (K562): 6%; growth at 0.003 µM (NCI-H23): 94%; growth at 0.3 µM [16]: 98%; growth at 0.3 µM (HT-29): 111%; growth at 30 µM (SF-295): -53%; growth at 0.003 µM (KM12 [17]): 94%
